In PubChem BioAssay AID248 (DTP/NCI, 2004):
Where “and” joins values, the source holds several entries; their conditions need not be identical. Identical values can stand only once. Inconclusive results and toxic doses are left out. Cut-off read from the data, not from the text of the source: active = T/C of 150% or more; inactive = T/C below 125%.

System: L1210 leukemia ip in BDF1 mice, survival T/C
Experiment: NCI In Vivo Anticancer Drug Screen. Data for tumor model L1210 Leukemia (intraperitoneal) in B6D2F1 (BDF1) mice
Conditions: endpoint: mean survival time, higher = longer survival
Method in brief: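 Ratio derived from survival: compound-dosed mice over vehicle-dosed mice, all bearing a transplantable tumor.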

[1] = dose: 100.0 mg/kg/injection, schedule: Q01DX009 (ip), vehicle: saline
[2] = dose: 200.0 mg/kg/injection, schedule: Q01DX009 (ip), vehicle: saline
[3] = dose: 50.0 mg/kg/injection, schedule: Q01DX009 (ip), vehicle: Klucel (hydroxypropylcellulose) (HPC)
[4] = dose: 100.0 mg/kg/injection, schedule: Q01DX009 (ip), vehicle: Klucel (hydroxypropylcellulose) (HPC)
[5] = dose: 100.0 mg/kg/injection, schedule: Q04DX003 (ip), vehicle: Klucel (hydroxypropylcellulose) (HPC)
[6] = dose: 200.0 mg/kg/injection, schedule: Q01DX009 (ip), vehicle: Klucel (hydroxypropylcellulose) (HPC)
[7] = dose: 200.0 mg/kg/injection, schedule: Q04DX003 (ip), vehicle: Klucel (hydroxypropylcellulose) (HPC)
[8] = dose: 400.0 mg/kg/injection, schedule: Q04DX003 (ip), vehicle: Klucel (hydroxypropylcellulose) (HPC)
[9] = dose: 100.0 mg/kg/injection, schedule: Q04DX002 (ip), vehicle: saline with Tween-80
[10] = dose: 200.0 mg/kg/injection, schedule: Q04DX002 (ip), vehicle: saline with Tween-80
[11] = dose: 400.0 mg/kg/injection, schedule: Q04DX002 (ip), vehicle: saline with Tween-80
[12] = dose: 400.0 mg/kg/injection, schedule: Q01DX009 (ip), vehicle: Klucel (hydroxypropylcellulose) (HPC)
[13] = dose: 100.0 mg/kg/injection, schedule: Q04DX003 (ip), vehicle: saline with Tween-80
[14] = dose: 200.0 mg/kg/injection, schedule: Q04DX003 (ip), vehicle: saline with Tween-80
[15] = dose: 400.0 mg/kg/injection, schedule: Q04DX003 (ip), vehicle: saline with Tween-80
[16] = dose: 100.0 mg/kg/injection, schedule: Q01DX009 (ip), vehicle: saline with Tween-80
[17] = dose: 200.0 mg/kg/injection, schedule: Q01DX009 (ip), vehicle: saline with Tween-80
[18] = dose: 400.0 mg/kg/injection, schedule: Q01DX009 (ip), vehicle: saline with Tween-80
[19] = dose: 100.0 mg/kg/injection, schedule: Q01DX001 (ip), vehicle: saline
[20] = dose: 200.0 mg/kg/injection, schedule: Q01DX001 (ip), vehicle: saline
[21] = dose: 400.0 mg/kg/injection, schedule: Q01DX001 (ip), vehicle: saline
[22] = dose: 50.0 mg/kg/injection, schedule: Q01DX009 (ip), vehicle: saline with Tween-80
[23] = dose: 100.0 mg/kg/injection, schedule: Q04DX003 (ip), vehicle: saline
[24] = dose: 200.0 mg/kg/injection, schedule: Q04DX003 (ip), vehicle: saline
[25] = dose: 400.0 mg/kg/injection, schedule: Q04DX003 (ip), vehicle: saline

Measured: T/C

CCOC(=O)C1CCC(C(=O)OCC)N1Cc1ccccc1 (centres undefined)
inactive: [1] 101 % of control | [2] 104 % of control | dose: 400.0 mg/kg/injection, schedule: Q01DX009 (ip), vehicle: saline 108 % of control

Cn1c(C=O)cc(=O)[nH]c1=S
inactive: [3] 92 % of control | [4] 93 % of control | [5] 100 % of control | [6] 93 % of control | [7] 105 % of control | [8] 100 % of control

CCCCCCCNC(=S)OCC
inactive: [9] 100 % of control | [10] 107 % of control | [11] 107 % of control

O=C(O)/C=C/C(=O)Nc1ccccc1
inactive: [4] 90 % of control | [5] 93 % of control | [6] 97 % of control | [7] 95 % of control | [12] 100 % of control | [8] 95 % of control

CC12CCC(CC1C(=O)O)C2 (centres undefined)
inactive: [13] 96 % of control | [14] 94 % of control | [15] 98 % of control

Nc1ncc(Br)cc1Br
inactive: [16] 94 % of control | [13] 101 % of control | [17] 108 % of control | [14] 95 % of control | [18] 116 % of control | [15] 97 % of control

NNc1ccc(C(=O)O)cc1
inactive: [4] 100 % of control | [16] 98 % of control and 101 % of control | [5] 102 % of control | [13] 100 % of control and 101 % of control | [6] 96 % of control | [17] 93 % of control and 95 % of control | [7] 91 % of control | [14] 96 % of control and 108 % of control | [12] 100 % of control | [18] 117 % of control and 91 % of control | [8] 96 % of control | [15] 94 % of control and 96 % of control

C[C@@H]1CCC([C@@H](C)[C@H]2CC[C@H]3[C@@H]4CC[C@H]5C[C@@H](O)CC[C@]5(C)[C@H]4CC[C@]23C)=NC1
inactive: dose: 1.56 mg/kg/injection, schedule: Q01DX015 (ip), vehicle: saline 94 % of control | dose: 3.13 mg/kg/injection, schedule: Q01DX015 (ip), vehicle: saline 97 % of control | dose: 6.25 mg/kg/injection, schedule: Q01DX015 (ip), vehicle: saline 94 % of control | dose: 12.5 mg/kg/injection, schedule: Q01DX015 (ip), vehicle: saline 94 % of control | dose: 12.5 mg/kg/injection, schedule: Q01DX Z (ip), vehicle: saline 93 % of control | dose: 25.0 mg/kg/injection, schedule: Q01DX Z (ip), vehicle: saline 106 % of control | dose: 50.0 mg/kg/injection, schedule: Q01DX Z (ip), vehicle: saline 93 % of control | dose: 100.0 mg/kg/injection, schedule: Q01DX Z (ip), vehicle: saline 97 % of control | dose: 125.0 mg/kg/injection, schedule: Q01DX001 (ip), vehicle: saline 93 % of control

CCCCCCCCCCCC(=O)NC(=S)Nc1cccc(O)c1
inactive: dose: 100.0 mg/kg/injection, schedule: Q04DX002 (ip), vehicle: Klucel (hydroxypropylcellulose) (HPC) 104 % of control | dose: 200.0 mg/kg/injection, schedule: Q04DX002 (ip), vehicle: Klucel (hydroxypropylcellulose) (HPC) 87 % of control | dose: 400.0 mg/kg/injection, schedule: Q04DX002 (ip), vehicle: Klucel (hydroxypropylcellulose) (HPC) 104 % of control

CCCCCCCCCCCCCCSc1ccc2ccccc2c1
inactive: [5] 92 % of control | [7] 86 % of control | [8] 87 % of control

CC(=O)OC1C(C(N)=O)CC(C(=O)O)C1OC(C)=O (centres undefined)
inactive: [19] 112 % of control | [20] 114 % of control | [21] 106 % of control

Cc1cccc(C(C#N)(CCC#N)N2CCOCC2)n1 (centres undefined)
inactive: [22] 91 % of control | [16] 98 % of control | [17] 94 % of control

COc1ccccc1NC(=O)NCCCCCCNC(=O)Nc1ccccc1OC
inactive: [4] 89 % of control | [6] 92 % of control | [12] 94 % of control

CC1=NNC(C)(C)C1
inactive: [23] 91 % of control | [24] 93 % of control | [25] 98 % of control

CCC(Br)C(=O)Nc1c(C)cccc1Cl (centres undefined)
inactive: dose: 25.0 mg/kg/injection, schedule: Q01DX009 (ip), vehicle: Klucel (hydroxypropylcellulose) (HPC) 97 % of control | [3] 98 % of control | [4] 94 % of control and 101 % of control | [5] 97 % of control | [7] 95 % of control | [8] 97 % of control

Nc1cc(NCc2ccccc2)nc(=O)[nH]1
inactive: dose: 100.0 mg/kg/injection, schedule: Q01DX001 (ip), vehicle: gum acacia 97 % of control | dose: 200.0 mg/kg/injection, schedule: Q01DX001 (ip), vehicle: gum acacia 95 % of control | dose: 400.0 mg/kg/injection, schedule: Q01DX001 (ip), vehicle: gum acacia 101 % of control

C[N+](C)(CCNCc1ccccc1)Cc1ccccc1
inactive: [19] 102 % of control | [20] 100 % of control | [21] 100 % of control

Clc1ccc(/C(=C(\Br)c2ccccc2)c2ccccc2)cc1
inactive: [16] 96 % of control and 98 % of control | [17] 95 % of control and 101 % of control | [18] 96 % of control and 102 % of control

O=[N+]([O-])c1cccc(Cl)c1Oc1cc(Cl)c(Cl)cc1Cl
inactive: dose: 1.25 mg/kg/injection, schedule: Q01DX001 (ip), vehicle: saline 105 % of control | dose: 2.5 mg/kg/injection, schedule: Q01DX001 (ip), vehicle: saline 105 % of control | dose: 5.0 mg/kg/injection, schedule: Q01DX001 (ip), vehicle: saline 102 % of control | dose: 10.0 mg/kg/injection, schedule: Q01DX001 (ip), vehicle: saline 96 % of control

NNC(=O)c1ccc(I)cc1
inactive: [9] 118 % of control | [10] 118 % of control | [11] 107 % of control

CCOC(=O)CN(c1c(C)cc(C)c(N(CC(=O)OCC)S(=O)(=O)c2ccccc2)c1C)S(=O)(=O)c1ccccc1
inactive: [23] 93 % of control | [24] 101 % of control | [25] 93 % of control

O=[N+]([O-])c1ccc(N/N=C(\CCc2ccccc2)c2ccccc2)c([N+](=O)[O-])c1
inactive: [22] 93 % of control | [16] 96 % of control | [17] 86 % of control

CC(C)=CCC/C(C)=C\C=N\NC(N)=S
inactive: dose: 50.0 mg/kg/injection, schedule: Q01DX001 (ip), vehicle: carboxymethylcellulose (CMC) 96 % of control | dose: 100.0 mg/kg/injection, schedule: Q01DX001 (ip), vehicle: carboxymethylcellulose (CMC) 104 % of control | dose: 200.0 mg/kg/injection, schedule: Q01DX001 (ip), vehicle: carboxymethylcellulose (CMC) 104 % of control

CC(=O)NCS(=O)(=O)O
inactive: [1] 104 % of control | [2] 96 % of control

CC12CC1(C)C(=O)OC2=O (centres undefined)
inactive: [13] 87 % of control | [14] 92 % of control

CCCC(CCC)NCCOC(=O)c1ccc(N)cc1
inactive: dose: 75.0 mg/kg/injection, schedule: Q01DX001 (ip), vehicle: other 101 % of control

CC(=O)OCC1OC(N2C(=O)/C(=C(/C)c3ccccn3)SC2=S)C(OC(C)=O)C(OC(C)=O)C1OC(C)=O (centres undefined)
inactive: dose: 25.0 mg/kg/injection, schedule: Q01DX005 (ip), vehicle: other 92 % of control | dose: 50.0 mg/kg/injection, schedule: Q01DX005 (ip), vehicle: other 97 % of control | dose: 100.0 mg/kg/injection, schedule: Q01DX005 (ip), vehicle: other 94 % of control | dose: 200.0 mg/kg/injection, schedule: Q01DX005 (ip), vehicle: other 96 % of control | dose: 400.0 mg/kg/injection, schedule: Q01DX005 (ip), vehicle: other 96 % of control

CCCC(=O)CC(=O)CC(C)C
inactive: dose: 50.0 mg/kg/injection, schedule: Q01DX001 (ip), vehicle: saline 100 % of control | [19] 94 % of control | [20] 107 % of control | [21] 94 % of control

CN1CCN(C(=O)C2C(c3ccccc3)C2c2ccc(Cl)c(Cl)c2)CC1 (centres undefined)
inactive: dose: 12.5 mg/kg/injection, schedule: Q04DX002 (ip), vehicle: saline with Tween-80 95 % of control and 98 % of control | dose: 25.0 mg/kg/injection, schedule: Q04DX002 (ip), vehicle: saline with Tween-80 103 % of control | dose: 50.0 mg/kg/injection, schedule: Q04DX002 (ip), vehicle: saline with Tween-80 92 % of control and 88 % of control
